According to ChEMBL document CHEMBL6078624, “Structure-based discovery of a 4,5-Dihydropyrazole-cored PET ligand for imaging of receptor-interacting serine/threonine-protein kinase 1 (RIPK1) in the brain” (Eur J Med Chem, 2024):

Experiment: Drug uptake in macaque brain measured at 5 mins by micro-PET imaging analysis
Assay type: ADME, tissue-based
Conditions: macaca, in vivo

With `CC(C)(C)C(=O)N1N=CC[C@H]1c1cccc([11CH3])c1` the SUVmax was ~ 3.7.
